These results are taken from ChEMBL document CHEMBL1131702, “Synthesis and biological activity of KCB-328 and its analogues: novel class III antiarrhythmic agents with little reverse frequency dependence” (1999).

Test [1] in a line: Ratio of ERPc prolongation was measured as percent change at 3 Hz/1 Hz. Format: functional.
The species entered for test [2] is Cavia porcellus. Kind of test: Effective refractory period of contractile response in isolated guinea-pig papillary muscles at 3 Hz and 1 uM. The format is functional, Muscle tissue.
The species named for test [3] is Cavia porcellus. The experiment in a line: Effective refractory period of contractile response in isolated guinea-pig papillary muscles at 1 Hz and 1 uM. The format is functional, Muscle tissue.
The nature of test [4]: Ratio of APD prolongation was measured as percent change at 3 Hz/1 Hz. The format is functional.
The species entered for test [5] is Cavia porcellus. Kind of test: Effect of 1 uM of compound, on action potential duration (APD) was determined in isolated guinea-pig papillary muscles at 1 Hz. The format is functional, Muscle tissue.
The species named for test [6] is Cavia porcellus. The experiment in a line: Effect of 1 uM of compound, on action potential duration (APD) was determined in isolated guinea-pig papillary muscles at 3 Hz. The format is functional, Muscle tissue.

For `COc1ccc(CCN(C)CCOc2ccc(NS(C)(=O)=O)cc2Br)cc1OC`, in test [1], the Ratio came out at 76. The “Delta ERPc” value in the test listed under Cavia porcellus [2] was determined as 25.2%; in the test listed under Cavia porcellus [3], 32.8%.

`COc1ccc(CCN(C)CCOc2ccc(NS(C)(=O)=O)cc2C)cc1OC`: the Ratio in test [1] stood at 94. Further, the “Delta ERPc” value was found to be 27.2% in the test filed under Cavia porcellus [2] and 28.9% in the test filed under Cavia porcellus [3].

On to `CN(CCOc1ccc(NS(C)(=O)=O)cc1)CCc1ccc(NS(C)(=O)=O)cc1` [DOFETILIDE], for which the values for the Ratio in test [4] and in test [1] were 59 and 65, respectively. In addition, the “Delta APD90” value in the test filed under Cavia porcellus [5] was 45.6%; in the test listed under Cavia porcellus [6] it was 26.8%. Further, the entries for the “Delta ERPc” value in the test listed under Cavia porcellus [2] and in the test listed under Cavia porcellus [3] were 30.8% and 49.9%, respectively.

As to `COc1ccc(CCN(C)CCOc2ccc(NS(C)(=O)=O)cc2Cl)cc1OC`, in test [1], the Ratio came out at 95. In addition, the “Delta ERPc” value in the test filed under Cavia porcellus [2] was 30.8%; in the test filed under Cavia porcellus [3], 32.2%.

For `COc1ccc(CCN(C)CCOc2ccc(NS(C)(=O)=O)cc2I)cc1OC`, in test [1], the Ratio worked out at 73. Besides, the results for the “Delta ERPc” value in the test filed under Cavia porcellus [2] and in the test filed under Cavia porcellus [3] were 21.2% and 28.9%, respectively.

For `Cc1cccc(CCN2CCC(C(=O)c3ccc(NS(C)(=O)=O)cc3)CC2)n1`, in test [1], the Ratio was 71. Also, the results for the “Delta ERPc” value in the test filed under Cavia porcellus [2] and in the test listed under Cavia porcellus [3] were 30.2% and 41.8%, respectively.

As for `COc1ccc(CCN(C)CCOc2ccc(NS(C)(=O)=O)cc2Nc2nccs2)cc1OC`, the Ratio in test [1] was determined as 84. Besides, the “Delta ERPc” value in the test filed under Cavia porcellus [2] is given as 36.8%; in the test listed under Cavia porcellus [3] it was 43.4%.

Consider `COc1cc(N)c(CCN(C)CCOc2ccc(NS(C)(=O)=O)cc2Cl)cc1OC`, for which the Ratio in test [1] turned out to be 126. Besides, the “Delta ERPc” value in the test filed under Cavia porcellus [2] worked out at 34.7%; in the test listed under Cavia porcellus [3], 27.5%.

Consider `COc1ccc(CCN(C)CCOc2ccc(NS(C)(=O)=O)cc2)cc1OC`, for which, in test [1], the Ratio was determined as 48. The “Delta ERPc” value in the test filed under Cavia porcellus [2] is 28.9%; in the test filed under Cavia porcellus [3], 60.1%.

Regarding `COc1cc(N)c(CCN(C)CCOc2ccc(NS(C)(=O)=O)cc2-n2cccc2)cc1OC`, the Ratio in test [1] stood at 62. Further, the “Delta ERPc” value in the test listed under Cavia porcellus [2] is given as 24.7%; in the test filed under Cavia porcellus [3] it was 39.4%.

`COc1cc(C)c(CCN(C)CCOc2ccc(NS(C)(=O)=O)cc2Cl)cc1OC`: the Ratio in test [4] came out at 82; in test [1], 118. Moreover, the “Delta APD90” value in the test listed under Cavia porcellus [5] was 37.8%; in the test filed under Cavia porcellus [6] it was 22.2%. Moreover, the “Delta ERPc” value in the test listed under Cavia porcellus [2] was 33.1%; in the test filed under Cavia porcellus [3] it was 28%.

With `COc1cc(C)c(CCN(C)CCOc2ccc(NS(C)(=O)=O)cc2-n2cccc2)cc1OC`, in test [1], the Ratio is 81. The “Delta ERPc” value in the test listed under Cavia porcellus [2] amounted to 26.3%; in the test listed under Cavia porcellus [3], 32.1%.

Regarding `COc1cc(CCN(C)CCOc2ccc(NS(C)(=O)=O)cc2Cl)c([N+](=O)[O-])cc1OC`, the Ratio in test [1] is 123. Moreover, the “Delta ERPc” value in the test filed under Cavia porcellus [2] is given as 36.2%; in the test listed under Cavia porcellus [3], 29.4%.

Consider `COc1ccc(CCN(C)CCOc2ccc(NS(C)(=O)=O)cc2F)cc1OC`, for which, in test [1], the Ratio was 75. Besides, the “Delta ERPc” value was 25.9% in the test filed under Cavia porcellus [2] and 34.5% in the test listed under Cavia porcellus [3].

For `COc1ccc(CCN(C)CCOc2ccc(NS(C)(=O)=O)cc2-n2cccc2)cc1OC`, the Ratio in test [4] came to 99; in test [1] it was 128. Also, the “Delta APD90” value in the test filed under Cavia porcellus [5] stood at 26.4%; in the test filed under Cavia porcellus [6], 26.2%. The “Delta ERPc” value in the test filed under Cavia porcellus [2] stood at 40.1%; in the test filed under Cavia porcellus [3] it was 31.2%.

Regarding `COc1ccc(CCN(C)CCOc2ccc(NS(C)(=O)=O)cc2[N+](=O)[O-])cc1OC`, the Ratio in test [1] turned out to be 75. Also, the “Delta ERPc” value in the test listed under Cavia porcellus [2] amounted to 25%; in the test filed under Cavia porcellus [3] it was 33.3%.

For `COc1ccc(CCN(C)CCOc2ccc(NS(C)(=O)=O)cc2N)cc1OC`, the Ratio in test [4] came out at 86; in test [1], 105. Moreover, the “Delta APD90” value in the test filed under Cavia porcellus [5] came to 33.3%; in the test listed under Cavia porcellus [6], 28.6%. Also, the “Delta ERPc” value is recorded as 32.6% in the test listed under Cavia porcellus [2] and 31% in the test filed under Cavia porcellus [3].

Consider `COc1ccc(CCN(C)CCOc2ccc(NS(C)(=O)=O)cc2OCc2ccccc2)cc1OC`, for which the Ratio in test [1] is 114. The results for the “Delta ERPc” value in the test filed under Cavia porcellus [2] and in the test listed under Cavia porcellus [3] were 30% and 26.3%, respectively.

Turning to `COc1ccc(CCN(C)CCOc2ccc(NS(C)(=O)=O)cc2NC(C)=O)cc1OC`, the Ratio in test [1] was found to be 70. In addition, the “Delta ERPc” value was 27.7% in the test filed under Cavia porcellus [2] and 39.3% in the test filed under Cavia porcellus [3].

As for `COc1cc(Cl)c(CCN(C)CCOc2ccc(NS(C)(=O)=O)cc2Cl)cc1OC`, in test [1], the Ratio came out at 79. Besides, the “Delta ERPc” value worked out at 17.8% in the test filed under Cavia porcellus [2] and 22.4% in the test listed under Cavia porcellus [3].
